Experimental data taken from patent publication US20090062251A1, “Novel Compounds 002” (ASTRAZENECA AB, priority 2007, published 2009).

Target: T1, Human CB1 receptor (hCB1) (Homo sapiens, UniProt P21554)
T1 construct: purchased Receptor Biology
Experiment: hCB1 GTPγS binding
Assay type: biochemical
Conditions: for EC50: hCB1 membranes, GTPγ35S, 10-point dose-response; for Emax / hCB1 EMax: maximal stimulated binding determined with 10 μM Win 55,212-2
Protocol: hCB1 and hCB2 GTPγS Binding
Human CB1 receptor from Receptor Biology (hCB1) or human CB2 receptor membranes (BioSignal) are thawed at 37° C., passed 3 times through a 25-gauge blunt-end needle and diluted in the GTPγS binding buffer (50 mM Hepes, 20 mM NaOH, 100 mM NaCl, 1 mM EDTA, 5 mM MgCl2, pH 7.4, 0.1% BSA). […] The basal and maximal stimulated binding is determined in absence and presence of 1 μM (hCB2) or 10 μM (hCB1) Win 55, 212-2 respectively. The membranes are pre-incubated for 5 minutes with 56.25 μM (hCB2) or 112.5 μM (hCB1) GDP prior to distribution in plates (15 μM (hCB2) or 30 μM (hCB1) GDP final). The plates are vortexed and incubated for 60 minutes at room temperature, filtered on Unifilters GF/B (presoaked in water) with the Tomtec or Packard harvester using 3 ml of wash buffer (50 mM Tris, 5 mM MgCl2, 50 mM NaCl, pH 7.0). The filters are dried for 1 hour at 55° C. The radioactivity (cpm) is counted in a TopCount (Packard) after adding 65 μl/well of MS-20 scintillation liquid. Antagonist reversal studies are done in the same way except that (a) an agonist dose-response curve is done in the presence of a constant concentration of antagonist, or (b) an antagonist dose-response curve is done in the presence of a constant concentration of agonist.

T1 sequence (P21554 whole entry): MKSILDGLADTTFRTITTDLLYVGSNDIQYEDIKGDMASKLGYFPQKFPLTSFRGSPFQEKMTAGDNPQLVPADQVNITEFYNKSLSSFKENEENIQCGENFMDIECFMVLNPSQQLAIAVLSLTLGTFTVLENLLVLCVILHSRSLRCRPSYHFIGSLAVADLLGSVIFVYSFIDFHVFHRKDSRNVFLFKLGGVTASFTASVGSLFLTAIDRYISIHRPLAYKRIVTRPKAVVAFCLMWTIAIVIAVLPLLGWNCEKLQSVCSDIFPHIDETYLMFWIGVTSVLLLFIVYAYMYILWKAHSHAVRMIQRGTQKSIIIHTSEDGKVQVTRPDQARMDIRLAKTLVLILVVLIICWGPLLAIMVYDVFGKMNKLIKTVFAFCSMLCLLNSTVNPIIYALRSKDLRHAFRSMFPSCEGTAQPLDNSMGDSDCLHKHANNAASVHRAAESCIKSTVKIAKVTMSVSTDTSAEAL

Work on `CCNC(=O)CN(CC)C(=O)c1ccc2c(c1)c1c(n2CC(=O)N(CC)CC)CCC(C2CCOCC2)C1` (centres unmarked) [9-(diethylcarbamoylmethyl)-N-ethyl-N-(ethylcarbamoylmethyl)-6-(oxan-4-yl)-5,6,7,8-tetrahydrocarbazole-3-carboxamide] yielded an EC50 of over 10000 nM and an Emax of over 87%.
`CCS(=O)(=O)n1c2c(c3cc(C(=O)N4CCC[C@@H]4C(=O)NCCF)ccc31)CC(C1CCOCC1)CC2` (stereo partly drawn) [(2R)-1-[9-ethylsulfonyl-6-(oxan-4-yl)5,6,7,8-tetrahydrocarbazole-3-carbonyl]-N-(2-fluoroethyl)pyrrolidine-2-carboxamide] gave an EC50 of 1700 nM and an Emax of over 107%.
With `Cn1c2c(c3cc(C(=O)N4CCC[C@H](C(=O)NC5CC5)C4)ccc31)CC(C1CCOCC1)CC2` (stereo partly drawn) [(3S)—N-cyclopropyl-1-[9-methyl-6-(oxan-4-yl)5,6,7,8-tetrahydrocarbazole-3-carbonyl]piperidine-3-carboxamide] the Emax was 118%.
With `Cn1c2c(c3cc(C(=O)N4CC[C@H](C(=O)NC5CC5)C4)ccc31)CC(C1CCOCC1)CC2` (stereo partly drawn) [(3S)—N-cyclopropyl-1-[9-methyl-6-(oxan-4-yl)5,6,7,8-tetrahydrocarbazole-3-carbonyl]pyrrolidine-3-carboxamide] the Emax was 134%.
In the case of `CN(CCCC(=O)Nn1cccc1)C(=O)c1ccc2c(c1)c1c(n2C)CC[C@@H](C2CCOCC2)C1` [(R)—N-(4-(1H-Pyrrol-1-ylamino)-4-oxobutyl)-N,9-dimethyl-3-(tetrahydro-2H-pyran-4-yl)-2,3,4,9-tetrahydro-1H-carbazole-6-carboxamide], the EC50 is reported as 1050 nM and the Emax is reported as 89%.
Work on `CN(C)NC(=O)CCCN(C)C(=O)c1ccc2c(c1)c1c(n2C)CC[C@@H](C2CCOCC2)C1` [(R)—N-(4-(2,2-Dimethylhydrazinyl)-4-oxobutyl)-N,9-dimethyl-3-(tetrahydro-2H-pyran-4-yl)-2,3,4,9-tetrahydro-1H-carbazole-6-carboxamide] yielded an EC50 of 917 nM and an Emax of 96%.
`COCCNC(=O)CCCN(C)C(=O)c1ccc2c(c1)c1c(n2C)CC[C@@H](C2CCOCC2)C1` [(R)—N-(4-(2-Methoxyethylamino)-4-oxobutyl)-N,9-dimethyl-3-(tetrahydro-2H-pyran-4-yl)-2,3,4,9-tetrahydro-1H-carbazole-6-carboxamide] gave an EC50 of 1210 nM and an Emax of 93%.
Compound `CN(CCCC(=O)NCC#N)C(=O)c1ccc2c(c1)c1c(n2C)CC[C@@H](C2CCOCC2)C1` [(R)—N-(4-(Cyanomethylamino)-4-oxobutyl)-N,9-dimethyl-3-(tetrahydro-2H-pyran-4-yl)-2,3,4,9-tetrahydro-1H-carbazole-6-carboxamide] has an EC50 of 71 nM and an Emax of 110%.
With `CONC(=O)CCCN(C)C(=O)c1ccc2c(c1)c1c(n2C)CC[C@@H](C2CCOCC2)C1` [(R)—N-(4-(Methoxyamino)-4-oxobutyl)-N,9-dimethyl-3-(tetrahydro-2H-pyran-4-yl)-2,3,4,9-tetrahydro-1H-carbazole-6-carboxamide] the EC50 was 291 nM and the Emax was 104%.
Work on `CC(C)NC(=O)CC[C@@H](CO)N(C)C(=O)c1ccc2c(c1)c1c(n2C)CC[C@@H](C2CCOCC2)C1` [(R)—N-((S)-1-Hydroxy-5-(isopropylamino)-5-oxopentan-2-yl)-N,9-dimethyl-3-(tetrahydro-2H-pyran-4-yl)-2,3,4,9-tetrahydro-1H-carbazole-6-carboxamide] yielded an EC50 of 133 nM and an Emax of 129%.
In the case of `CNC(=O)CC[C@@H](CO)N(C)C(=O)c1ccc2c(c1)c1c(n2C)CC[C@@H](C2CCOCC2)C1` [(R)—N-((S)-1-Hydroxy-5-(methylamino)-5-oxopentan-2-yl)-N,9-dimethyl-3-(tetrahydro-2H-pyran-4-yl)-2,3,4,9-tetrahydro-1H-carbazole-6-carboxamide], the EC50 is reported as 101 nM and the Emax is reported as 124%.
In the case of `CN(C(=O)c1ccc2c(c1)c1c(n2C)CC[C@@H](C2CCOCC2)C1)[C@H](CO)CCC(=O)NC1COC1` [(R)—N-((S)-1-Hydroxy-5-(oxetan-3-ylamino)-5-oxopentan-2-yl)-N,9-dimethyl-3-(tetrahydro-2H-pyran-4-yl)-2,3,4,9-tetrahydro-1H-carbazole-6-carboxamide], the EC50 is reported as 201 nM and the Emax is reported as 119%.
In the case of `CN(C(=O)c1ccc2c(c1)c1c(n2C)CC[C@@H](C2CCOCC2)C1)[C@H](CO)CCC(=O)NCC(F)F` [(R)—N-((S)-5-(2,2-Difluoroethylamino)-1-hydroxy-5-oxopentan-2-yl)-N,9-dimethyl-3-(tetrahydro-2H-pyran-4-yl)-2,3,4,9-tetrahydro-1H-carbazole-6-carboxamide], the EC50 is reported as 107 nM and the Emax is reported as 120%.
`CCN(CCCC(=O)NCCO)C(=O)c1ccc2c(c1)c1c(n2C)CC[C@@H](C2CCOCC2)C1` [(R)—N-Ethyl-N-(4-(2-hydroxyethylamino)-4-oxobutyl)-9-methyl-3-(tetrahydro-2H-pyran-4-yl)-2,3,4,9-tetrahydro-1H-carbazole-6-carboxamide] was tested, and the EC50 was 31 nM and the Emax was 113%.
For `CNC(=O)CCCN(C)C(=O)c1ccc2c(c1)c1c(n2C)CCC(C2CCOCC2)C1` (centres unmarked) [N,9-dimethyl-N-[3-(methylcarbamoyl)propyl]-6-(oxan-4-yl)-5,6,7,8-tetrahydrocarbazole-3-carboxamide], the Emax was 102%.
With `CN(CC(=O)NC1CC1)C(=O)c1ccc2c(c1)c1c(n2C)CCC(C2CCOCC2)C1` (centres unmarked) [N-(cyclopropylcarbamoylmethyl)-N,9-dimethyl-6-(oxan-4-yl)-5,6,7,8-tetrahydrocarbazole-3-carboxamide] the Emax was 121% and the “hCB1 EMax” value was 121%.
In the case of `CCN(CC(=O)NC1CC1)C(=O)c1ccc2c(c1)c1c(n2C)CCC(C2CCOCC2)C1` (centres unmarked) [N-(cyclopropylcarbamoylmethyl)-N-ethyl-9-methyl-6-(oxan-4-yl)-5,6,7,8-tetrahydrocarbazole-3-carboxamide], the Emax is reported as 124%.
`CN(CCCC(=O)NCCF)C(=O)c1ccc2c(c1)c1c(n2C)CCC(C2CCOCC2)C1` (centres unmarked) [N-[3-(2-fluoroethylcarbamoyl)propyl]-N,9-dimethyl-6-(oxan-4-yl)-5,6,7,8-tetrahydrocarbazole-3-carboxamide] showed an Emax of 121%.
For `Cn1c2c(c3cc(C(=O)N4CC[C@H](NC(=O)C5CC5)C4)ccc31)CC(C1CCOCC1)CC2` (stereo partly drawn) [N-[(3S)-1-[9-methyl-6-(oxan-4-yl)5,6,7,8-tetrahydrocarbazole-3-carbonyl]pyrrolidin-3-yl]cyclopropanecarboxamide], the EC50 was 1150 nM and the Emax was 116%.
In the case of `CCN(CC(=O)NCCO)C(=O)c1ccc2c(c1)c1c(n2S(=O)(=O)CC)CCC(C2CCOCC2)C1` (centres unmarked) [N-ethyl-9-ethylsulfonyl-N-(2-hydroxyethylcarbamoylmethyl)-6-(oxan-4-yl)-5,6,7,8-tetrahydrocarbazole-3-carboxamide], the Emax is reported as 111% and the “hCB1 EMax” value is reported as 111%.
`CCN(CC(=O)NC1CCOCC1)C(=O)c1ccc2c(c1)c1c(n2C)CCC(C2CCOCC2)C1` (centres unmarked) [N-ethyl-9-methyl-6-(oxan-4-yl)-N-(oxan-4-ylcarbamoylmethyl)-5,6,7,8-tetrahydrocarbazole-3-carboxamide] showed an EC50 of over 1110 nM and an Emax of over 88%.
With `CCN(CC(=O)NCCF)C(=O)c1ccc2c(c1)c1c(n2C)CCC(C2CCOCC2)C1` (centres unmarked) [N-ethyl-N-(2-fluoroethylcarbamoylmethyl)-9-methyl-6-(oxan-4-yl)-5,6,7,8-tetrahydrocarbazole-3-carboxamide] the Emax was 108%.
Work on `CCNC(=O)CN(CC)C(=O)c1ccc2c(c1)c1c(n2CC(C)(C)O)CCC(C2CCOCC2)C1` (centres unmarked) [N-ethyl-N-(ethylcarbamoylmethyl)-9-(2-hydroxy-2-methyl-propyl)-6-(oxan-4-yl)-5,6,7,8-tetrahydrocarbazole-3-carboxamide] yielded an EC50 of over 30000 nM and an Emax of over 34%.
`CCNC(=O)CN(CC)C(=O)c1ccc2c(c1)c1c(n2CCO)CCC(C2CCOCC2)C1` (centres unmarked) [N-ethyl-N-(ethylcarbamoylmethyl)-9-(2-hydroxyethyl)-6-(oxan-4-yl)-5,6,7,8-tetrahydrocarbazole-3-carboxamide] was tested, and the EC50 was over 3330 nM and the Emax was over 83%.
In the case of `CCNC(=O)CN(CC)C(=O)c1ccc2c(c1)c1c(n2CC(=O)NC)CCC(C2CCOCC2)C1` (centres unmarked) [N-ethyl-N-(ethylcarbamoylmethyl)-9-(methylcarbamoylmethyl)-6-(oxan-4-yl)-5,6,7,8-tetrahydrocarbazole-3-carboxamide], the EC50 is reported as over 30000 nM and the Emax is reported as over 9%.
With `CCS(=O)(=O)n1c2c(c3cc(C(=O)N4CCC[C@@H](O)C4)ccc31)CC(C1CCOCC1)CC2` (stereo partly drawn) [[9-ethylsulfonyl-6-(oxan-4-yl)-5,6,7,8-tetrahydrocarbazol-3-yl]-[(3R)-3-hydroxy-1-piperidyl]methanone] the EC50 was 1760 nM and the Emax was 104%.
`CCS(=O)(=O)n1c2c(c3cc(C(=O)N4CC[C@@H](O)C4)ccc31)CC(C1CCOCC1)CC2` (stereo partly drawn) [[9-ethylsulfonyl-6-(oxan-4-yl)-5,6,7,8-tetrahydrocarbazol-3-yl]-[(3R)-3-hydroxypyrrolidin-1-yl]methanone] was tested, and the EC50 was over 3160 nM and the Emax was over 89%.
For `CCS(=O)(=O)n1c2c(c3cc(C(=O)N4CC[C@H](O)C4)ccc31)CC(C1CCOCC1)CC2` (stereo partly drawn) [[9-ethylsulfonyl-6-(oxan-4-yl)-5,6,7,8-tetrahydrocarbazol-3-yl]-[(3S)-3-hydroxypyrrolidin-1-yl]methanone], the EC50 was 4560 nM and the Emax was 105%.
